≈ marks a conversion by molar mass, not a printed value. Like-named read-outs stand apart in the source and are kept apart here.
Assays:
M. luteus ATCC 9341 = assay: In vitro antibacterial activity, agar dilution MIC; format: cell-based
Experimental: (§1) Each plate was inoculated with 1:100 (or 1:10 for slow-growing strains, primarily Micrococcus and Streptococcus) dilutions of up to 32 different microorganisms, using a Steers replicator block calibrated to deliver approximately 10^4 colony forming units (CFUs). The inoculated plates were incubated at from about 35° C. to about 37° C. for approximately 20-24 hours. In addition, a control plate using BHI agar containing no test compound was prepared and incubated at the beginning and at the end of each test. The quinolone antibacterial ciprofloxacin was used as a control ("Cntl").
(§2) The MIC was defined as the lowest concentration of test compound yielding no growth (a slight haze or sparsely isolated colonies at the inoculum spot) as compared to the growth control containing no test compound.

Staph. aureus NCTC10649M = assay: In vitro antibacterial activity, agar dilution MIC; format: cell-based; settings: Staphylococcus aureus, NCTC10649M
Experimental: as §1, §2

[1] = system: Entero. faecium ATCC 8043; assay: In vitro antibacterial activity, agar dilution MIC; format: cell-based; settings: Entero. faecium ATCC 8043, BHI agar dilution, 20-24 hours
Experimental: as §1, §2

[2] = system: Staph. aureus 1775 Cipro. R.; assay: In vitro antibacterial activity, agar dilution MIC; format: cell-based
Experimental: as §1, §2

E. coli DC-2 = assay: In vitro antibacterial activity, agar dilution MIC; format: cell-based
Experimental: as §1, §2

[3] = system: Acinetob. calcoaceticus CMX 669; assay: In vitro antibacterial activity, agar dilution MIC; format: cell-based
Experimental: as §1, §2

Strep. pyogenes EES61 = assay: In vitro antibacterial activity, agar dilution MIC; format: cell-based
Experimental: as §1, §2

Staph. epidermidis 3519 = assay: In vitro antibacterial activity, agar dilution MIC; format: cell-based
Experimental: as §1, §2

Staph. aureus A5177 = assay: In vitro antibacterial activity, agar dilution MIC; format: cell-based
Experimental: as §1, §2

Staph. aureus CMX 553 = assay: In vitro antibacterial activity, agar dilution MIC; format: cell-based; settings: Staph. aureus CMX 553, BHI agar dilution, 20-24 hours
Experimental: as §1, §2

Strep. bovis A5169 = assay: In vitro antibacterial activity, agar dilution MIC; format: cell-based
Experimental: as §1, §2

Candida albicans CCH 442 = assay: In vitro antibacterial activity, agar dilution MIC
Experimental: as §1, §2

Pseudomonas cepacia 296I = assay: In vitro antibacterial activity, agar dilution MIC; format: cell-based
Experimental: as §1, §2

[4] = system: Strep. pyogenes 2548 INDUC; assay: microbe, parasite or virus in culture; format: cell-based
Experimental: as §1, §2

E. coli KNK 437 = assay: In vitro antibacterial activity, agar dilution MIC; format: cell-based
Experimental: as §1, §2

Staph. aureus 642A = assay: In vitro antibacterial activity, agar dilution MIC; format: cell-based
Experimental: as §1, §2

[5] = system: Strep. agalactiae CMX 508; assay: In vitro antibacterial activity, agar dilution MIC; format: cell-based; settings: Strep. agalactiae CMX 508, BHI agar dilution, 20-24 hours
Experimental: as §1, §2

Staph. aureus 5278 = assay: In vitro antibacterial activity, agar dilution MIC; format: cell-based
Experimental: as §1, §2

E. coli SS = assay: In vitro antibacterial activity, agar dilution MIC; format: cell-based
Experimental: as §1, §2

Escherichia coli Juhl = assay: In vitro antibacterial activity, agar dilution MIC; format: cell-based
Experimental: as §1, §2

M. luteus ATCC 4698 = assay: In vitro antibacterial activity, agar dilution MIC; format: cell-based
Experimental: as §1, §2

P. aeruginosa BMH 10 = assay: In vitro antibacterial activity, agar dilution MIC; format: cell-based
Experimental: as §1, §2

P. aeruginosa A5007 = assay: In vitro antibacterial activity, agar dilution MIC; format: cell-based
Experimental: as §1, §2

P. aeruginosa 2862 = assay: In vitro antibacterial activity, agar dilution MIC; format: cell-based
Experimental: as §1, §2

P. aeruginosa 5263 [6] = assay: microbe, parasite or virus in culture; settings: Pseudomonas aeruginosa
Experimental: as §1, §2

P. aeruginosa K799/61 = assay: In vitro antibacterial activity, agar dilution MIC; format: cell-based
Experimental: as §1, §2

Staph. aureus ATCC 6538P = assay: In vitro antibacterial activity, agar dilution MIC; format: cell-based
Experimental: as §1, §2

Myco. smegmatis ATCC 114 = assay: In vitro antibacterial activity, agar dilution MIC; format: cell-based
Experimental: as §1, §2

[7] = system: Strep. pyogenes 930 CONST; assay: In vitro antibacterial activity, agar dilution MIC; format: cell-based; settings: Strep. pyogenes 930 CONST, BHI agar dilution, 20-24 hours
Experimental: as §1, §2

E. coli H560 = assay: In vitro antibacterial activity, agar dilution MIC; format: cell-based
Experimental: as §1, §2

[8] = system: Nocardia asteroides ATCC 9970; assay: In vitro antibacterial activity, agar dilution MIC; format: cell-based; settings: Nocardia asteroides ATCC 9970, BHI agar dilution, 20-24 hours
Experimental: as §1, §2

[9] = system: Providencia stuartii CMX 640; assay: In vitro antibacterial activity, agar dilution MIC; format: cell-based; settings: Providencia stuartii CMX 640, BHI agar dilution, 20-24 hours
Experimental: as §1, §2

P. aeruginosa K799/WT = assay: In vitro antibacterial activity, agar dilution MIC; format: cell-based
Experimental: as §1, §2

[10] = system: Enter. aerogenes ATCC 13048; assay: In vitro antibacterial activity, agar dilution MIC; format: cell-based
Experimental: as §1, §2

[11] = system: Klebs. pneumoniae ATCC 8045; assay: In vitro antibacterial activity, agar dilution MIC; format: cell-based; settings: Klebs. pneumoniae ATCC 8045, BHI agar dilution, 20-24 hours
Experimental: as §1, §2

P. aeruginosa 5263 [12] = settings: BHI agar dilution, 20-24 hours
Experimental: as §1, §2

## O=C(O)c1cn(C2CC2)c2cc(N3CCNCC3)c(F)cc2c1=O [Control, ciprofloxacin, reference compound]
M. luteus ATCC 9341; Micrococcus luteus, ATCC9341
  MIC: 3.1 mg/L (≈ 9.36 µM)
Staph. aureus NCTC10649M
  MIC: 0.39 mg/L (≈ 1.18 µM)
[1]; Enterococcus faecium, ATCC8043, read-out: MIC
  MIC: 0.78 mg/L (≈ 2.35 µM)
[2]; Staphylococcus aureus
  MIC: > 100 mg/L
E. coli DC-2; Escherichia coli, DC2
  MIC: 0.2 mg/L (≈ 0.604 µM)
[3]
  MIC: 0.39 mg/L (≈ 1.18 µM)
Strep. pyogenes EES61; Streptococcus pyogenes, EES61
  MIC: 0.39 mg/L (≈ 1.18 µM)
Staph. epidermidis 3519; Staphylococcus epidermidis, 3519
  MIC: 0.39 mg/L (≈ 1.18 µM)
Staph. aureus A5177; Staphylococcus aureus, A5177
  MIC: 0.39 mg/L (≈ 1.18 µM)
Staph. aureus CMX 553; Staphylococcus aureus, CMX553, read-out: MIC
  MIC: 0.78 mg/L (≈ 2.35 µM)
Strep. bovis A5169; Streptococcus equinus, A5169
  MIC: 1.56 mg/L (≈ 4.71 µM)
Candida albicans CCH 442; Candida albicans, CCH442
  MIC: > 100 mg/L
Pseudomonas cepacia 296I; Burkholderia cepacia, 296I
  MIC: 3.1 mg/L (≈ 9.36 µM)
[4]; Streptococcus pyogenes, 2548INDUC
  MIC: 0.39 mg/L (≈ 1.18 µM)
E. coli KNK 437; Escherichia coli, KNK437
  MIC: 0.2 mg/L (≈ 0.604 µM)
Staph. aureus 642A; Staphylococcus aureus, 642A
  MIC: 0.39 mg/L (≈ 1.18 µM)
[5]; Streptococcus agalactiae, CMX508, read-out: MIC
  MIC: 0.78 mg/L (≈ 2.35 µM)
Staph. aureus 5278; Staphylococcus aureus, 5278
  MIC: 0.39 mg/L (≈ 1.18 µM)
E. coli SS; Escherichia coli
  MIC: 0.005 mg/L (≈ 0.0151 µM)
Escherichia coli Juhl; Escherichia coli
  MIC: 0.05 mg/L (≈ 0.151 µM)
M. luteus ATCC 4698; Micrococcus luteus, ATCC4698
  MIC: 1.56 mg/L (≈ 4.71 µM)
P. aeruginosa BMH 10; Pseudomonas aeruginosa, BMH10
  MIC: 0.1 mg/L (≈ 0.302 µM)
P. aeruginosa A5007; Pseudomonas aeruginosa, A5007
  MIC: 0.2 mg/L (≈ 0.604 µM)
P. aeruginosa 2862; Pseudomonas aeruginosa, 2862
  MIC: 12.5 mg/L (≈ 37.7 µM)
P. aeruginosa 5263 [6]
  MIC: 12.5 mg/L (≈ 37.7 µM)
P. aeruginosa K799/61; Pseudomonas aeruginosa, K799/61
  MIC: 0.02 mg/L (≈ 0.0604 µM)
Staph. aureus ATCC 6538P; Staphylococcus aureus, ATCC6538P
  MIC: 0.05 mg/L (≈ 0.151 µM)
Myco. smegmatis ATCC 114; Mycolicibacterium smegmatis, ATCC114
  MIC: 1.56 mg/L (≈ 4.71 µM)
[7]; Streptococcus pyogenes, read-out: MIC
  MIC: 0.78 mg/L (≈ 2.35 µM)
E. coli H560; Escherichia coli, H560
  MIC: 0.01 mg/L (≈ 0.0302 µM)
[8]; ATCC9970, read-out: MIC
  MIC: 25 mg/L (≈ 75.4 µM)
[9]; CMX640, read-out: MIC
  MIC: 0.78 mg/L (≈ 2.35 µM)
P. aeruginosa K799/WT; Pseudomonas aeruginosa, K799/WT
  MIC: 0.1 mg/L (≈ 0.302 µM)
[10]; Klebsiella aerogenes, ATCC13048
  MIC: 0.05 mg/L (≈ 0.151 µM)
[11]; Klebsiella pneumoniae, ATCC8045, read-out: MIC
  MIC: 0.01 mg/L (≈ 0.0302 µM)

## CC[C@@H]1CN(c2c(F)cn3c(=O)c(C(=O)O)cc(C4CC4)c3c2C)C[C@H]1N.Cl (single isomer, unassigned; diastereomer a) [Ex. 2, 8-(trans-3-amino-4-ethylpyrrolidin-1-yl)-1-cyclopropyl-7-fluoro-4H-9-methyl-4-oxo-quinolizine-3-carboxylic acid hydrochloride diastereomer A]
M. luteus ATCC 9341; M. luteus ATCC 9341, BHI agar dilution, 20-24 hours
  MIC: 0.05 mg/L
[1]
  MIC: 0.05 mg/L
[2]; Staph. aureus 1775 Cipro. R., BHI agar dilution, 20-24 hours
  MIC: 0.78 mg/L
E. coli DC-2; E. coli DC-2, BHI agar dilution, 20-24 hours
  MIC: 0.1 mg/L
[3]; Acinetob. calcoaceticus CMX 669, BHI agar dilution, 20-24 hours
  MIC: 0.05 mg/L
Strep. pyogenes EES61; Strep. pyogenes EES61, BHI agar dilution, 20-24 hours
  MIC: 0.02 mg/L
Staph. epidermidis 3519; Staph. epidermidis 3519, BHI agar dilution, 20-24 hours
  MIC: 0.05 mg/L
Staph. aureus A5177; Staph. aureus A5177, BHI agar dilution, 20-24 hours
  MIC: 0.02 mg/L
Staph. aureus CMX 553
  MIC: 0.02 mg/L
Strep. bovis A5169; Strep. bovis A5169, BHI agar dilution, 20-24 hours
  MIC: 0.1 mg/L
Candida albicans CCH 442; Candida albicans CCH 442, BHI agar dilution, 20-24 hours
  MIC: > 100 mg/L
Pseudomonas cepacia 296I; Pseudomonas cepacia 296I, BHI agar dilution, 20-24 hours
  MIC: 1.56 mg/L
[4]; Strep. pyogenes 2548 INDUC, BHI agar dilution, 20-24 hours
  MIC: 0.05 mg/L
E. coli KNK 437; E. coli KNK 437, BHI agar dilution, 20-24 hours
  MIC: 0.1 mg/L
Staph. aureus 642A; Staph. aureus 642A, BHI agar dilution, 20-24 hours
  MIC: 0.02 mg/L
[5]
  MIC: 0.02 mg/L
Staph. aureus 5278; Staph. aureus 5278, BHI agar dilution, 20-24 hours
  MIC: 0.05 mg/L
E. coli SS; E. coli SS, BHI agar dilution, 20-24 hours
  MIC: 0.001 mg/L
Escherichia coli Juhl; Escherichia coli Juhl, BHI agar dilution, 20-24 hours
  MIC: 0.01 mg/L
M. luteus ATCC 4698; M. luteus ATCC 4698, BHI agar dilution, 20-24 hours
  MIC: 0.05 mg/L
P. aeruginosa 5263 [12]
  MIC: 3.1 mg/L
P. aeruginosa BMH 10; P. aeruginosa BMH 10, BHI agar dilution, 20-24 hours
  MIC: 0.2 mg/L
P. aeruginosa A5007; P. aeruginosa A5007, BHI agar dilution, 20-24 hours
  MIC: 0.39 mg/L
P. aeruginosa 2862; P. aeruginosa 2862, BHI agar dilution, 20-24 hours
  MIC: 6.2 mg/L
P. aeruginosa K799/61; P. aeruginosa K799/61, BHI agar dilution, 20-24 hours
  MIC: 0.1 mg/L
Staph. aureus ATCC 6538P; Staph. aureus ATCC 6538P, BHI agar dilution, 20-24 hours
  MIC: 0.02 mg/L
Myco. smegmatis ATCC 114; Myco. smegmatis ATCC 114, BHI agar dilution, 20-24 hours
  MIC: 0.02 mg/L
[7]
  MIC: 0.05 mg/L
E. coli H560; E. coli H560, BHI agar dilution, 20-24 hours
  MIC: 0.01 mg/L
[8]
  MIC: 0.78 mg/L
[9]
  MIC: 0.39 mg/L
P. aeruginosa K799/WT; P. aeruginosa K799/WT, BHI agar dilution, 20-24 hours
  MIC: 0.78 mg/L
[10]; Enter. aerogenes ATCC 13048, BHI agar dilution, 20-24 hours
  MIC: 0.1 mg/L
[11]
  MIC: 0.05 mg/L

— patent US5837868A, “Process for preparation of chiral 3-amino-pyrrolidine and analogous bicyclic compounds” (Abbott Laboratories, priority 1997, dated 1998)
